Patent US20220175781A1, “CD40L COMPOSITIONS AND METHODS FOR TUNABLE REGULATION” (Obsidian Therapeutics, Inc., priority 2019, published 2022)

Key:
[1] = tested on: T cells; test: Dose response of TMP, Bazedoxifene or Raloxifene, % CD40L positive T cells; type: cell-based; conditions: T cells expressing OT-001666
Method: T cells were transduced with OT-001662 or OT-001666. On day 4, cells were treated with increasing doses of TMP for T cells expressing OT-001662. Cells expressing OT-001666 were treated either with increasing concentrations of Bazedoxifene or Raloxifene. The data are shown in Table 30 as the percentage of CD40L positive T cells.

[2] = tested on: T cells (CD4+ and CD8+ subsets); test: Vardenafil dose response of CD40L surface expression in T cells, CD4+ and CD8+ subsets; type: cell-based; set-up: key to SR: ratio of CD40L expression with vardenafil to expression without it; conditions: OT-001892 transduced T cells
Method: T cells were transduced with 10 μL of lentivirus corresponding to OT-001892. 4 days after transduction, cells were treated with increasing concentrations of ligand (Vardenafil) or vehicle control for 24 hours. Surface expression of CD40L in T cells as well as the CD4+ and CD8+ subsets was analyzed by FACS. The stabilization ratio (SR) may be defined as the ratio of expression, CD40L in response to vardenafil to the expression of CD40L in the absence of vardenafil.

[3] = target: CD40 (UniProt P25942); test: cell-based or functional assay
[4] = tested on: T cells (CD4 and CD8 positive); test: Bazedoxifene dose response, CD40L MFI in CD4 and CD8 positive T cells (day 4, freeze/thaw, restimulation); type: cell-based; conditions: T cells, Bazedoxifene dose response
Method: Dose response with Bazedoxifene in T cells were conducted for OT-001966, OT-001967, OT-001666. Expression of CD40L was measured at (a) day 4 after transduction, (b) after freezing and thawing the cells or (c) after freezing and thawing the cells followed by restimulation with CD3/CD28 beads. The CD40L MFI (median fluorescence intensity) within CD4 and CD8 positive subpopulations is shown in Table 34 and Table 35 respectively.

[5] = tested on: T cells (CD4 and CD8); test: Cleavage resistant CD40L expression and TMP regulation in T cells; type: cell-based; conditions: T cells, 10 μM TMP 24 hours, CD4 and CD8 populations
Method: T cells were transduced with OT-001668 and on day 4, the percentage of CD40L expressing T cells (within the both CD4 and CD8) subpopulations was calculated.
T cells were transduced with ecDHFR regulated construct OT-001671 that include a CD40L protein that was resistant to cleavage. On day 4 cells were treated with 10 μM TMP for 24 hours. […] In an independent experiment, T cells transduced with varying volumes of virus corresponding to OT-001671 were treated with increasing doses of TMP for 24 hours. In Table 41, 0.5 μL, 2 μL, and 10 μL indicate the different volumes of virus that were used.

[6] = All Cells, Vardenafil 0.0001 μM
[7] = CD4+ Cells, Vardenafil 0.0001 μM
[8] = CD4+ Cells, Vardenafil 0.001 μM
[9] = CD8+ Cells, Vardenafil 0.0001 μM
[10] = CD8+ Cells, Vardenafil 0.001 μM

Chain of CD40 (P25942 21-277 limits assumed): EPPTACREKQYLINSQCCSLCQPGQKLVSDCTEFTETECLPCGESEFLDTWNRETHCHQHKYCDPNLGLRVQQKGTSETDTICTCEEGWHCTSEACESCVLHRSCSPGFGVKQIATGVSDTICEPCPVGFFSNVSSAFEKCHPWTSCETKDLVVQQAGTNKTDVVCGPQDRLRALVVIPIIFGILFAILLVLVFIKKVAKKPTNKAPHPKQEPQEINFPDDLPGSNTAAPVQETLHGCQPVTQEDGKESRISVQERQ

`Cc1c(-c2ccc(O)cc2)n(Cc2ccc(OCCN3CCCCCC3)cc2)c2ccc(O)cc12` [Bazidoxefene] was tested, and the “Percent of cells expressing CD40L” value ([1]; Dose 0.0001 μM) was 4.88%, the “Percent of cells expressing CD40L” value ([1]; Dose 0.001 μM) was 5.17% and the “Percent of cells expressing CD40L” value ([1]; Dose 0.01 μM) was 5.42%. For the same molecule, the “Percent of cells expressing CD40L” value ([1]; Dose 0.1 μM) was 7.67% and the “Percent of cells expressing CD40L” value ([1]; Dose 1 μM) was 13.5%.

`CCCc1nc(C)c2c(=O)[nH]c(-c3cc(S(=O)(=O)N4CCN(CC)CC4)ccc3OCC)nn12` [Vardenafil] gave an MFI [2, 6] of 274, an SR [2, 6] of 1.31 and an MFI ([2]; All Cells, Vardenafil 0.001 μM) of 260. For the same molecule, the SR ([2]; All Cells, Vardenafil 0.001 μM) was 1.24, the MFI ([2]; All Cells, Vardenafil 0.01 μM) was 265 and the SR ([2]; All Cells, Vardenafil 0.01 μM) was 1.27. The MFI ([2]; All Cells, Vardenafil 0.1 μM) was 311, the SR ([2]; All Cells, Vardenafil 0.1 μM) was 1.49 and the MFI ([2]; All Cells, Vardenafil 1 μM) was 405. For the same molecule, the SR ([2]; All Cells, Vardenafil 1 μM) was 1.94, the MFI ([2]; All Cells, Vardenafil 10 μM) was 747 and the SR ([2]; All Cells, Vardenafil 10 μM) was 3.57. For the same molecule, the MFI ([2]; All Cells, Vardenafil 100 μM) was 1168, the SR ([2]; All Cells, Vardenafil 100 μM) was 5.59 and the MFI [2, 7] was 313. For the same molecule, the SR [2, 7] was 1.38, the MFI [2, 8] was 291 and the SR [2, 8] was 1.28. It also gave an MFI ([2]; CD4+ Cells, Vardenafil 0.01 μM) of 304, an SR ([2]; CD4+ Cells, Vardenafil 0.01 μM) of 1.34 and an MFI ([2]; CD4+ Cells, Vardenafil 0.1 μM) of 359. It also gave an SR ([2]; CD4+ Cells, Vardenafil 0.1 μM) of 1.58, an MFI ([2]; CD4+ Cells, Vardenafil 1 μM) of 482 and an SR ([2]; CD4+ Cells, Vardenafil 1 μM) of 2.12. It also gave an MFI ([2]; CD4+ Cells, Vardenafil 10 μM) of 930, an SR ([2]; CD4+ Cells, Vardenafil 10 μM) of 4.10 and an MFI ([2]; CD4+ Cells, Vardenafil 100 μM) of 1367. It also gave an SR ([2]; CD4+ Cells, Vardenafil 100 μM) of 6.02, an MFI [2, 9] of 166 and an SR [2, 9] of 1.15. It also gave an MFI [2, 10] of 166, an SR [2, 10] of 1.15 and an MFI ([2]; CD8+ Cells, Vardenafil 0.01 μM) of 162. For the same molecule, the SR ([2]; CD8+ Cells, Vardenafil 0.01 μM) was 1.13, the MFI ([2]; CD8+ Cells, Vardenafil 0.1 μM) was 171 and the SR ([2]; CD8+ Cells, Vardenafil 0.1 μM) was 1.19. For the same molecule, the MFI ([2]; CD8+ Cells, Vardenafil 1 μM) was 186, the SR ([2]; CD8+ Cells, Vardenafil 1 μM) was 1.29 and the MFI ([2]; CD8+ Cells, Vardenafil 10 μM) was 340. The SR ([2]; CD8+ Cells, Vardenafil 10 μM) was 2.36, the MFI ([2]; CD8+ Cells, Vardenafil 100 μM) was 620 and the SR ([2]; CD8+ Cells, Vardenafil 100 μM) was 4.31.

In the case of “OT-001662 (Met; Linker (SG); ecDHFR (M1del, R12Y, Y100I); Histidine residue; CD40L; stop) (ligand)”, the IFNg (pg/ml), 2-day co-culture of transduced T cells with mDC, DMSO (DRD not stabilised) [3] is reported as 3790 pg/mL, the IFNg (pg/ml), 2-day co-culture of transduced T cells with mDC, TMP (0.1 µM) [3] is reported as 7430 pg/mL and the IFNg (pg/ml), 2-day co-culture of transduced T cells with mDC, TMP (0.5 µM) [3] is reported as 3590 pg/mL. The IFNg (pg/ml), 2-day co-culture of transduced T cells with mDC, TMP (2 µM) [3] was 16400 pg/mL, the IFNg (pg/ml), 2-day co-culture of transduced T cells with mDC, TMP (10 µM) [3] was 13500 pg/mL and the IL12 (pg/ml), 2-day co-culture of transduced T cells with mDC, DMSO (DRD not stabilised) [3] was 0.254 pg/mL. The IL12 (pg/ml), 2-day co-culture of transduced T cells with mDC, TMP (0.1 µM) [3] was 0.0705 pg/mL, the IL12 (pg/ml), 2-day co-culture of transduced T cells with mDC, TMP (2 µM) [3] was 19.4 pg/mL and the IL12 (pg/ml), 2-day co-culture of transduced T cells with mDC, TMP (10 µM) [3] was 59.3 pg/mL. The SEAP reporter of HEK-Blue CD40 cells co-cultured 24 hours with transduced Jurkat cells plus 50 µM TMP, given as Soluble CD40L (pg/ml) against a recombinant soluble CD40L standard [3] was 8660 pg/mL, the TNFa (pg/ml), 2-day co-culture of transduced T cells with mDC, DMSO (DRD not stabilised) [3] was 82.3 pg/mL and the TNFa (pg/ml), 2-day co-culture of transduced T cells with mDC, TMP (0.1 µM) [3] was 131 pg/mL. For the same molecule, the TNFa (pg/ml), 2-day co-culture of transduced T cells with mDC, TMP (0.5 µM) [3] was 83.9 pg/mL, the TNFa (pg/ml), 2-day co-culture of transduced T cells with mDC, TMP (2 µM) [3] was 249 pg/mL and the TNFa (pg/ml), 2-day co-culture of transduced T cells with mDC, TMP (10 µM) [3] was 251 pg/mL.

`O=C(c1ccc(OCCN2CCCCC2)cc1)c1c(-c2ccc(O)cc2)sc2cc(O)ccc12` [Raloxifene] was tested, and the “Percent of cells expressing CD40L” value ([1]; Dose 0.0001 μM) was 4.67%, the “Percent of cells expressing CD40L” value ([1]; Dose 0.001 μM) was 5.01% and the “Percent of cells expressing CD40L” value ([1]; Dose 0.01 μM) was 5%. For the same molecule, the “Percent of cells expressing CD40L” value ([1]; Dose 0.1 μM) was 5.18% and the “Percent of cells expressing CD40L” value ([1]; Dose 1 μM) was 7.1%.

In the case of `Cc1c(-c2ccc(O)cc2)n(Cc2ccc(OCCN3CCCCCC3)cc2)c2ccc(O)cc12` [Bazedoxifene, reference compound], the cell health [4] is reported as “affected cell health at highest dose”.

B1: OT-001671: ecDHFR regulated construct that includes a CD40L protein resistant to cleavage (protein)
chain: MSGISLIAALAVDYVIGMENAMPWNLPADLAWFKRNTLNKPVIMGRHTWESIGRPLPGRKNIILSSQPGTDDRVTWVKSVDEAIAACGDVPEIMVIGGGRVIEQFLPKAQKLYLTHIDAEVEGDTHFPDYEPDDWESVFSEFHDADAQNSHSYCFEILERRHMIETYNQTSPRSAATGLPISMKIFMYLLTVFLITQMIGSALFAVYLHRRLDKIEDERNLHEDFVFMKTIQRCNTGERSLSLLNCEEIKSQFEGFVKDIMLNKEETKKENDQNPQIAAHVISEASSKTTSVLQWAEKGYYTMSNNLVTLENGKQLTVKRQGLYYIYAQVTFCSNREASSQAPFIASLCLKSPGRFERILLRAANTHSSAKPCGQQSIHLGGVFELQPGASVFVNVTDPSQVSHGTGFTSFGLLKL
In the case of B1, the “TMP-mediated regulation of CD40L expression” value [5] is reported as “TMP-mediated Regulation of CD40L expression was observed”.
